# Data from PubChem BioAssay (NCI).
#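 Step 1: Grow cells in 96-well plates. Step 2: Expose to compound for 48 hours at 5 concentrations. Step 3: Interpolate endpoints linearly; if unreached, use highest concentration. TGI marks complete inhibition of growth.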
# Columns and labels:
# Test in all cases: NCI tumour cell line growth inhibition, 48 h
# SW-620 colon = tested on: SW-620 colon
# SN12K1 renal = tested on: SN12K1 renal
# U251 CNS = tested on: U251 CNS
# SK-MEL-2 melanoma = tested on: SK-MEL-2 melanoma
# HL-60(TB) leukemia = tested on: HL-60(TB) leukemia
# SNB-19 CNS = tested on: SNB-19 CNS
# MCF7 breast = tested on: MCF7 breast
# IGROV1 ovarian = tested on: IGROV1 ovarian
# MOLT-4 leukemia = tested on: MOLT-4 leukemia
# SK-MEL-5 melanoma = tested on: SK-MEL-5 melanoma
# OVCAR-4 ovarian = tested on: OVCAR-4 ovarian
# HCC-2998 colon = tested on: HCC-2998 colon
# SK-OV-3 ovarian = tested on: SK-OV-3 ovarian
# K-562 leukemia = tested on: K-562 leukemia
# SK-MEL-28 melanoma = tested on: SK-MEL-28 melanoma
# P388/ADR leukemia = tested on: P388/ADR leukemia
# NCI-H460 lung = tested on: NCI-H460 lung
# HCT-116 colon = tested on: HCT-116 colon
# HOP-62 NSCLC = tested on: HOP-62 NSCLC
# EKVX NSCLC = tested on: EKVX NSCLC
# CCRF-CEM leukemia = tested on: CCRF-CEM leukemia
# A498 renal = tested on: A498 renal
# SN12C renal = tested on: SN12C renal
# UO-31 renal = tested on: UO-31 renal
# SF-539 CNS = tested on: SF-539 CNS
# NCI-H23 lung = tested on: NCI-H23 lung
# HOP-18 NSCLC = tested on: HOP-18 NSCLC
# HT29 colon = tested on: HT29 colon
# HCT-15 colon = tested on: HCT-15 colon
# OVCAR-3 ovarian = tested on: OVCAR-3 ovarian
# OVCAR-8 ovarian = tested on: OVCAR-8 ovarian
# DMS 273 small cell lung = tested on: DMS 273 small cell lung
# LOX IMVI melanoma = tested on: LOX IMVI melanoma
# MALME-3M melanoma = tested on: MALME-3M melanoma
# UACC-257 melanoma = tested on: UACC-257 melanoma
# P388 leukemia = tested on: P388 leukemia
# RXF 393 renal = tested on: RXF 393 renal
# OVCAR-5 ovarian = tested on: OVCAR-5 ovarian
# M19-MEL melanoma = tested on: M19-MEL melanoma
# NCI/ADR-RES ovarian = tested on: NCI/ADR-RES ovarian
# KM12 colon = tested on: KM12 colon
# SNB-78 CNS = tested on: SNB-78 CNS
# DLD-1 colon = tested on: DLD-1 colon
# UACC-62 melanoma = tested on: UACC-62 melanoma
# HOP-92 NSCLC = tested on: HOP-92 NSCLC
# RPMI-8226 leukemia = tested on: RPMI-8226 leukemia
# NCI-H522 lung = tested on: NCI-H522 lung
# KM20L2 colon = tested on: KM20L2 colon
# COLO 205 colon = tested on: COLO 205 colon
# SF-295 CNS = tested on: SF-295 CNS
# CAKI-1 renal = tested on: CAKI-1 renal
# NCI-H226 lung = tested on: NCI-H226 lung
# DMS 114 small cell lung = tested on: DMS 114 small cell lung
# A549 NSCLC = tested on: A549 NSCLC
# SNB-75 CNS = tested on: SNB-75 CNS
# ACHN renal = tested on: ACHN renal
# LXFL 529 NSCLC = tested on: LXFL 529 NSCLC
# SR leukemia = tested on: SR leukemia
# 786-0 renal = tested on: 786-0 renal
# TK-10 renal = tested on: TK-10 renal
# XF 498 CNS = tested on: XF 498 CNS
# M14 melanoma = tested on: M14 melanoma
# RXF-631 renal = tested on: RXF-631 renal
# SF-268 CNS = tested on: SF-268 CNS
smiles,measurement,setting,value
CN1CCC23c4ccccc4NC1C21CCN(C)C3Nc2ccccc21,TGI,SW-620 colon,> 375 µM
same,TGI,SN12K1 renal,> 275 µM
same,TGI,U251 CNS,> 375 µM
same,TGI,SK-MEL-2 melanoma,> 375 µM
same,TGI,HL-60(TB) leukemia,109 µM
same,TGI,SNB-19 CNS,> 375 µM
same,TGI,MCF7 breast,> 375 µM
same,TGI,IGROV1 ovarian,> 375 µM
same,TGI,MOLT-4 leukemia,> 165 µM
same,TGI,SK-MEL-5 melanoma,> 174 µM
same,TGI,OVCAR-4 ovarian,> 375 µM
same,TGI,HCC-2998 colon,> 375 µM
same,TGI,SK-OV-3 ovarian,> 375 µM
same,TGI,K-562 leukemia,> 187 µM
same,TGI,SK-MEL-28 melanoma,> 375 µM
same,TGI,P388/ADR leukemia,> 375 µM
same,TGI,NCI-H460 lung,> 375 µM
same,TGI,HCT-116 colon,> 375 µM
same,TGI,HOP-62 NSCLC,> 375 µM
same,TGI,EKVX NSCLC,> 375 µM
same,TGI,CCRF-CEM leukemia,> 188 µM
same,TGI,A498 renal,> 375 µM
same,TGI,SN12C renal,> 375 µM
same,TGI,UO-31 renal,> 375 µM
same,TGI,SF-539 CNS,> 375 µM
same,TGI,NCI-H23 lung,> 375 µM
same,TGI,HOP-18 NSCLC,> 375 µM
same,TGI,HT29 colon,> 375 µM
same,TGI,HCT-15 colon,> 375 µM
same,TGI,OVCAR-3 ovarian,> 375 µM
same,TGI,OVCAR-8 ovarian,> 37.5 µM
same,TGI,DMS 273 small cell lung,> 375 µM
same,TGI,LOX IMVI melanoma,> 375 µM
same,TGI,MALME-3M melanoma,> 337 µM
same,TGI,UACC-257 melanoma,231 µM
same,TGI,P388 leukemia,> 124 µM
same,TGI,RXF 393 renal,> 375 µM
same,TGI,OVCAR-5 ovarian,> 375 µM
same,TGI,M19-MEL melanoma,> 375 µM
same,TGI,NCI/ADR-RES ovarian,> 375 µM
same,TGI,KM12 colon,> 284 µM
same,TGI,SNB-78 CNS,> 158 µM
same,TGI,DLD-1 colon,> 375 µM
same,TGI,UACC-62 melanoma,> 375 µM
same,TGI,HOP-92 NSCLC,296 µM
same,TGI,RPMI-8226 leukemia,> 182 µM
same,TGI,NCI-H522 lung,> 375 µM
same,TGI,KM20L2 colon,> 350 µM
same,TGI,COLO 205 colon,> 375 µM
same,TGI,SF-295 CNS,> 375 µM
same,TGI,CAKI-1 renal,> 164 µM
same,TGI,NCI-H226 lung,> 209 µM
same,TGI,DMS 114 small cell lung,> 375 µM
same,TGI,A549 NSCLC,> 375 µM
same,TGI,SNB-75 CNS,> 375 µM
CCCCC1(OC(=O)CCC(=O)O)CCC2(CCC(C)C(C/C=C(C)/C=C/C(O)C(C)/C=C/C(=O)O)O2)OC1CC/C(C)=C/C(=O)O (centres undefined),TGI,SW-620 colon,39.8 µM
same,TGI,U251 CNS,15.6 µM
same,TGI,SK-MEL-2 melanoma,3.18 µM
same,TGI,ACHN renal,26.2 µM
same,TGI,HL-60(TB) leukemia,24.5 µM
same,TGI,SNB-19 CNS,11.8 µM
same,TGI,LXFL 529 NSCLC,3.83 µM
same,TGI,IGROV1 ovarian,4.89 µM
same,TGI,MOLT-4 leukemia,26.9 µM
same,TGI,SK-MEL-5 melanoma,3.14 µM
same,TGI,SR leukemia,> 48.7 µM
same,TGI,786-0 renal,14.3 µM
same,TGI,OVCAR-4 ovarian,7.78 µM
same,TGI,HCC-2998 colon,9.98 µM
same,TGI,SK-OV-3 ovarian,25.4 µM
same,TGI,K-562 leukemia,9.99 µM
same,TGI,SK-MEL-28 melanoma,5.07 µM
same,TGI,NCI-H460 lung,18.4 µM
same,TGI,HCT-116 colon,> 50.4 µM
same,TGI,TK-10 renal,58.5 µM
same,TGI,HOP-62 NSCLC,4.96 µM
same,TGI,EKVX NSCLC,25.7 µM
same,TGI,CCRF-CEM leukemia,27.4 µM
same,TGI,A498 renal,12.6 µM
same,TGI,XF 498 CNS,4.66 µM
same,TGI,SN12C renal,9.2 µM
same,TGI,UO-31 renal,8.14 µM
same,TGI,SF-539 CNS,3.51 µM
same,TGI,NCI-H23 lung,3.49 µM
same,TGI,HOP-18 NSCLC,29.8 µM
same,TGI,HT29 colon,43.6 µM
same,TGI,HCT-15 colon,12.4 µM
same,TGI,OVCAR-3 ovarian,11.2 µM
same,TGI,OVCAR-8 ovarian,7.67 µM
same,TGI,DMS 273 small cell lung,18.2 µM
same,TGI,LOX IMVI melanoma,3.27 µM
same,TGI,MALME-3M melanoma,20.3 µM
same,TGI,UACC-257 melanoma,2.57 µM
same,TGI,RXF 393 renal,4.58 µM
same,TGI,OVCAR-5 ovarian,14.4 µM
same,TGI,M19-MEL melanoma,7.95 µM
same,TGI,KM12 colon,11.8 µM
same,TGI,M14 melanoma,4.52 µM
same,TGI,SNB-78 CNS,7.75 µM
same,TGI,DLD-1 colon,13.8 µM
same,TGI,UACC-62 melanoma,2.62 µM
same,TGI,HOP-92 NSCLC,4.74 µM
same,TGI,RXF-631 renal,5.7 µM
same,TGI,RPMI-8226 leukemia,> 37.3 µM
same,TGI,NCI-H522 lung,7.72 µM
same,TGI,SF-268 CNS,7.22 µM
same,TGI,KM20L2 colon,46.8 µM
same,TGI,COLO 205 colon,35.1 µM
same,TGI,SF-295 CNS,15.8 µM
same,TGI,CAKI-1 renal,15.3 µM
same,TGI,NCI-H226 lung,6.1 µM
same,TGI,DMS 114 small cell lung,8.56 µM
same,TGI,A549 NSCLC,36.6 µM
same,TGI,SNB-75 CNS,6.74 µM
